We go through 26 compounds from patent US10030016B2 (Sunesis Pharmaceuticals, Inc., priority 2009, dated 2018).

Test [1] deals with PDK1 (Homo sapiens (Human), UniProt O15530). Put plainly: PDK1 kinase assay (coupled PDK1/AKT/FAM-crosstide assay, IMAP fluorescence polarization). In kind it is biochemical. The essentials:
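GST-tagged human PDK1 (aa 51-359, 0.75 nM) from insect cells activated unphosphorylated GST-AKT2 (aa 140-467–PIFtide fusion, 10 nM), which phosphorylated 100 nM FAM-crosstide; 40 μM ATP, pH 7.2 Tris/MgCl2, 30 min at 25° C. IMAP fluorescence polarization read-out; ΔmP versus compound concentration fitted with a 4-parameter curve.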
On the technique in general: Polarisation of emitted light reports the rotation of a fluorescent probe.

The test system of test [2] is phospho-akt (Thr308) in PC-3 cells. Put plainly: Inhibition of phospho-akt (Thr308) in PC-3 cells, MSD phospho-akt 308 ELISA kit. In kind it is cell-based. The conditions noted are these: Homo sapiens, 2 hours, no serum, read-out: EC50. The method in brief:
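Phospho-Akt (Thr308) levels were measured by MSD ELISA after PC-3 cells received compound for 2 hours in serum-free medium. Controls: DMSO (high), 5 μM wortmannin (low).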
Background: In an ELISA, binding on a coated surface is turned into a signal by an enzyme label.

The mark [3] stands for this setting: inhibition of phospo-PDK1 in vitro.
Where [4] appears, read: inhibition of P308 Akt in PC-3 cells, MSD.
[5] abbreviates: inhibition of P308 Akt in PC-3 cells using MSD.

Structures can show the parent of a compound that is named as a salt. Where two headings read alike, the source gives them in different places. A value given as a limit tells only on which side of the number the result lay.

Chain of PDK1 (O15530 51-359): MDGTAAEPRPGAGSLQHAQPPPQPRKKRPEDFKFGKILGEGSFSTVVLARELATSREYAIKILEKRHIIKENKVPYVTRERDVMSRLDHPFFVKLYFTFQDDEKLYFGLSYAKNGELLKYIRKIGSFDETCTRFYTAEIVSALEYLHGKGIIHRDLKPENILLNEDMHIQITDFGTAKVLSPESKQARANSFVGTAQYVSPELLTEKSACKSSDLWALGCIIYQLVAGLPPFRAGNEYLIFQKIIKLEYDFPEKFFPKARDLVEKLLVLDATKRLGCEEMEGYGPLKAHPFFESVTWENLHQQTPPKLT

For orientation: IC50 means the midpoint of a concentration-inhibition curve. For orientation: EC50 means the midpoint of the concentration-response curve. `C[C@H](NC(=O)c1cccnc1NCc1ccc(-c2ccc3nc(N)[nH]c3c2)s1)c1ccc(F)cc1` [Example 2.21, (S)-2-(((5-(2-amino-1H-benzo[d]imidazol-6-yl)thiophen-2-yl)methyl)amino)-N-(1-(4-fluorophenyl)ethyl)nicotinamide]: in test [1] (setting [3]), the IC50 is 1000 to 5000 nM. Also, the EC50 in test [2] (setting [4]) is above 10000 nM.

Compound `CC(C)n1cc(-c2ccc(CNc3ncc(C(F)(F)F)cc3C(=O)Nc3ccc(F)cc3)cc2)c2c(N)ncnc21` [Example 442, 2-(4-(4-amino-7-isopropyl-7H-pyrrolo[2,3-d]pyrimidin-5-yl)benzylamino)-N-(4-fluorophenyl)-5-(trifluoromethyl)nicotinamide] returned an IC50 in test [1] (setting [3]) below 100 nM. The EC50 in test [2] (setting [5]) was below 1000 nM.

`COC(=O)c1ccc(-c2ccc(CNc3ncc(C#N)cc3C(=O)N[C@@H](C)c3ccc(F)cc3)cc2)cn1` [Example 112, (S)-methyl 5-(4-((5-cyano-3-(1-(4-fluorophenyl)ethyl-carbamoyl)pyridin-2-ylamino)methyl)phenyl)picolinate] showed a half-inhibitory concentration (IC50) in test [1] (inhibition of PDK1 in vitro) above 5000 nM. Also, the EC50 in test [2] (setting [5]) is above 10000 nM.

The compound `C[C@H](NC(=O)c1nc(C#N)cnc1N[C@H](CO)c1ccc(-c2cnc3[nH]nc(N)c3c2)cc1)c1ccc(F)c(F)c1` [Example 353, 3-((S)-1-(4-(3-amino-1H-pyrazolo[3,4-b]pyridin-5-yl)phenyl)-2-hydroxy-ethylamino)-6-cyano-N-((S)-1-(3,4-difluorophenyl)ethyl)pyrazine-2-carboxamide] returned a half-maximal inhibitory concentration (IC50) in test [1] (inhibition of PDK1 in vitro) below 100 nM. In test [2] (setting [5]), the EC50 is below 1000 nM.

As to `Nc1ncc(-c2ccc(CNc3ncc(C(F)(F)F)cc3C(=O)Nc3ccc(F)cc3)cc2)nc1CCC1CCCNC1` (stereo not shown) [Example 77, 2-{4-[5-Amino-6-(2-piperidin-3-yl-ethyl)-pyrazin-2-yl]-benzylamino}-N-(4-fluoro-phenyl)-5-trifluoromethyl-nicotinamide], the IC50 in test [1] (inhibition of PDK1 in vitro) was below 100 nM. The EC50 in test [2] (setting [5]) was 1000 to 10000 nM.

In test [1] (setting [3]), `O=C(NCc1ccc(F)c(F)c1)c1cccnc1NCc1ccc(-c2cnc3[nH]ncc3c2)cc1` [Example 2.35, 2-(4-(1H-pyrazolo[3,4-b]pyridin-5-yl)benzylamino)-N-(3,4-difluorobenzyl)nicotinamide] showed an IC50 below 100 nM. The EC50 in test [2] (setting [4]) is below 1000 nM.

For the compound `N#Cc1cnc(NCc2ccc(-c3cnc(N)cn3)cc2)c(C(=O)NCc2ccc(F)cc2)c1` [Example 378, 2-(4-(5-aminopyrazin-2-yl)benzylamino)-5-cyano-N-(4-fluorobenzyl) nicotinamide], the IC50 in test [1] (inhibition of PDK1 in vitro) is below 100 nM. Also, in test [2] (setting [5]), the EC50 was 1000 to 10000 nM.

Compound `Nc1n[nH]c2ncc(-c3ccc(CNc4ncc(C(F)(F)F)cc4C(=O)NC4CCC(F)(F)CC4)cc3)cc12` [Example 284, 2-(4-(3-amino-1H-pyrazolo [3,4-b]pyridin-5-yl)benzylamino)-N-(4,4-difluorocyclohexyl)-5-(trifluoromethyl)nicotinamide] registered an IC50 in test [1] (inhibition of PDK1 in vitro) above 5000 nM. In addition, the EC50 in test [2] (setting [5]) was 1000 to 10000 nM.

Take `C[C@H](NC(=O)c1cc(C(F)(F)F)cnc1NCc1ccc(-c2cnc3[nH]nc(N)c3c2)cc1)c1ccc(Br)cc1` [Example 282, (S)-2-(4-(3-amino-1H-pyrazolo [3,4-b]pyridin-5-yl)benzylamino)-N-(1-(4-bromophenyl)ethyl)-5-(trifluoromethyl)nicotinamide]: in test [1] (inhibition of PDK1 in vitro), the IC50 is below 100 nM. In addition, the EC50 in test [2] (setting [5]) was 1000 to 10000 nM.

With `C[C@H](NC(=O)c1cccnc1NCc1ccc(-c2ccc3ncnc(N)c3c2)s1)c1ccc(F)c(F)c1` [Example 3.41, (S)-2-(((5-(4-aminoquinazolin-6-yl)thiophen-2-yl)methyl)amino)-N-(1-(3,4-difluorophenyl)ethyl) nicotinamide (TFA salt)], the IC50 in test [1] (setting [3]) is below 100 nM. Moreover, the EC50 in test [2] (PC-3, 2 h, inhibition of P308 Akt in PC-3 cells, MSD) was below 1000 nM.

`C[C@H](NC(=O)c1cc(C#N)cnc1NCc1ccc(-c2cnc(N)c(O[C@H]3CCC[C@@H]3N)n2)cc1)c1ccc(F)cc1` [Example 168, 2-{4-[5-Amino-6-((1S,2S)-2-amino-cyclopentyloxy)-pyrazin-2-yl]-benzylamino}-5-cyano-N-[(S)-1-(4-fluoro-phenyl)-ethyl]-nicotinamide] gave an IC50 in test [1] (inhibition of PDK1 in vitro) below 100 nM. The EC50 in test [2] (setting [5]) was in the range of 1000 to 10000 nM.

`C[C@H](NC(=O)c1cc(C#N)cnc1NCc1ccc(-c2cnc(N)c(N3CCC[C@H](N)C3)n2)cc1)c1ccc(F)cc1` [Example 197] gave an IC50 in test [1] (inhibition of PDK1 in vitro) below 100 nM. Moreover, the concentration for a half-maximal effect (EC50) in test [2] (setting [5]) was below 1000 nM.

With `C[C@H](NC(=O)c1cc(C#N)cnc1NCc1ccc(-c2ccc3c(N)ncnn23)cc1)c1ccc(F)cc1` [Example 178, 2-[4-(4-Amino-pyrrolo [2,1-f][1,2,4]triazin-7-yl)-benzylamino]-5-cyano-N-[(S)-1-(4-fluoro-phenyl)-ethyl]-nicotinamide], in test [1] (inhibition of PDK1 in vitro), the IC50 was below 100 nM. Besides, the EC50 in test [2] (setting [5]) was 1000 to 10000 nM.

With `Nc1ncnn2c(-c3ccc(CNc4ncc(C(F)(F)F)cc4C(=O)Nc4ccc(F)cc4)cc3)ccc12` [Example 180, 2-[4-(4-Amino-pyrrolo [2,1-f][1,2,4]triazin-7-yl)-benzylamino]-N-(4-fluoro-phenyl)-5-trifluoromethyl-nicotinamide], the IC50 in test [1] (inhibition of PDK1 in vitro) is below 100 nM. For the same compound, the EC50 in test [2] (setting [5]) was 1000 to 10000 nM.

The compound `N#Cc1ccc(NCc2ccc(-c3ccc4ncnc(N)c4c3)s2)c(C(=O)NCc2ccc(F)c(F)c2)c1` [Example 247, 2-(((5-(4-aminoquinazolin-6-yl)thiophen-2-yl)methyl)amino)-5-cyano-N-(3,4-difluorobenzyl)benzamide] came in with an IC50 in test [1] (inhibition of PDK1 in vitro) below 100 nM. Further, in test [2] (setting [5]), the EC50 was above 10000 nM.

For `N#Cc1cnc(NCc2ccc(-c3ccc(N)nc3)cc2)c(C(=O)NCc2ccc(F)c(F)c2)n1` [Example 372, 3-(4-(6-aminopyridin-3-yl)benzylamino)-6-cyano-N-(3,4-difluorobenzyl)pyrazine-2-carboxamide], the IC50 in test [1] (inhibition of PDK1 in vitro) is below 100 nM. The EC50 in test [2] (setting [5]) was in the range of 1000 to 10000 nM.

In turn, `O=C(NCc1ccc(F)c(F)c1)c1cccnc1NCc1cccc(-c2ccc3ncnc(NC4CC4)c3c2)c1` [Example 6.3, 2-(3-(4-(cyclopropylamino)quinazolin-6-yl)benzylamino)-N-(3,4-difluorobenzyl)-nicotinamide] yielded an IC50 in test [1] (setting [3]) below 100 nM. Besides, in test [2] (setting [4]), the EC50 was above 10000 nM.

For the compound `Nc1ncnc2ccc(-c3csc(CNc4ncccc4C(=O)NCc4ccc(F)c(F)c4)n3)cc12` [Ex. 6.7, 2-({[4-(4-aminoquinazolin-6-yl)-1,3-thiazol-2-yl]methyl}amino)-N-(3,4-difluoro-benzyl) pyridine-3-carboxamide], in test [1] (setting [3]), the IC50 was below 100 nM. Also, the EC50 in test [2] (setting [4]) was above 10000 nM.

In test [1] (inhibition of PDK1 in vitro), `Cn1c(-c2ccc(CNc3ncc(C(F)(F)F)cc3C(=O)Nc3ccc(F)cc3)cc2)cc2c(N)ncnc21` [Example 337, 2-(4-(4-amino-7-methyl-7H-pyrrolo[2,3-d]pyrimidin-6-yl)-benzylamino)-N-(4-fluorophenyl)-5-(trifluoromethyl)nicotinamide] came in with an IC50 below 100 nM. For the same compound, the EC50 in test [2] (setting [5]) fell in the range of 1000 to 10000 nM.

`Cn1cnc2cnc3ccc(-c4cnc(CNc5ncccc5C(=O)NCc5ccc(F)c(F)c5)s4)cc3c21` [Example 384, N-(3,4-Difluoro-benzyl)-2-{[5-(1-methyl-1H-imidazo [4,5-c]quinolin-8-yl)-thiazol-2-ylmethyl]-amino}-nicotinamide] gave an IC50 in test [1] (inhibition of PDK1 in vitro) below 100 nM. The EC50 in test [2] (setting [5]) is below 1000 nM.

Compound `N#Cc1cnc(NCc2ccc(-c3cnc4[nH]c(=O)[nH]c4c3)cc2)c(C(=O)NCc2ccc(F)cc2)n1` [Example 365, 6-cyano-N-(4-fluorobenzyl)-3-(4-(2-oxo-2,3-dihydro-1H-imidazo[4,5-b]pyridin-6-yl)benzylamino)pyrazine-2-carboxamide] registered an IC50 in test [1] (inhibition of PDK1 in vitro) below 100 nM. The EC50 in test [2] (setting [5]) was below 1000 nM.

Compound `C[C@H](NC(=O)c1cccnc1NCc1ccc(-c2ccc3nccn3c2)s1)c1ccc(F)cc1` [Example 2.7, (S)-N-(1-(4-fluorophenyl)ethyl)-2-(((5-(imidazo[1,2-a]pyridin-6-yl)thiophen-2-yl)methyl)amino)nicotinamide] yielded an IC50 in test [1] (setting [3]) of 1000 to 5000 nM. The EC50 in test [2] (setting [4]) was above 10000 nM.

In test [1] (inhibition of PDK1 in vitro), `C[C@H](NC(=O)c1nc(C#N)cnc1NCc1ccc(-c2cnc(N)c(N3CCC[C@@H](N)C3)n2)cc1)c1ccc(F)c(F)c1` [Example 190, 3-{4-[5-Amino-6-((R)-3-amino-piperidin-1-yl)-pyrazin-2-yl]-benzylamino}-6-cyano-pyrazine-2-carboxylic acid [(S)-1-(3,4-difluoro-phenyl)-ethyl]-amide] yielded a 50% inhibitory concentration (IC50) below 100 nM. For the same compound, the EC50 in test [2] (setting [5]) fell in the range of 1000 to 10000 nM.

In turn, `Nc1cnc(-c2ccc(CNc3ncc(C(F)(F)F)cc3C(=O)Nc3ccc(F)cc3)cn2)cn1` [Example 325] returned an IC50 in test [1] (inhibition of PDK1 in vitro) of 100 to 1000 nM. Further, the concentration for a half-maximal effect (EC50) in test [2] (PC-3, 2 h, inhibition of P308 Akt in PC-3 cells using MSD) was 1000 to 10000 nM.

The compound `CC(C)Oc1cc(CNc2ncccc2C(=O)NCC(F)(F)F)cc(-c2c[nH]c3ncc(C(=O)NC4CC4)cc23)c1` [Example 4.1.5, N-cyclopropyl-3-{3-(propan-2-yloxy)-5-[({3-[(2,2,2-trifluoroethyl)carbamoyl]pyridin-2-yl}amino)methyl]phenyl}-1H-pyrrolo[2,3-b] pyridine-5-carboxamide] had an IC50 in test [1] (setting [3]) above 5000 nM. Moreover, the EC50 in test [2] (setting [4]) is above 10000 nM.

`N#Cc1cnc(NCc2ccc(-c3cnc4[nH]nc(N)c4c3)cc2)c(C(=O)Nc2ccc(F)cc2)n1` [Example 29, 3-(4-(3-amino-1H-pyrazolo[3,4-b]pyridin-5-yl)benzylamino)-6-cyano-N-(4-fluorophenyl) pyrazine-2-carboxamide] returned an IC50 in test [1] (setting [3]) below 100 nM. Besides, the EC50 in test [2] (setting [4]) was below 1000 nM.
